Data on 2 compounds can be found in article PMC5516028, “Molecular tools for GABAA receptors: High affinity ligands for β1-containing subtypes” (Scientific Reports, 2017).

Common to all, as to format: cell-based
One assay addresses T1, α1β1 GABAA receptors (Rattus norvegicus, UniProt P15431+P62813).
T1 construct: expressed in transfected cells; host or cells: Xenopus laevis oocytes, mRNA injected
Put plainly: Two electrode voltage clamp in Xenopus laevis oocytes, α1β1. Conditions: for EC50: read-out: EC50. From the text:
(§1) cDNA’s of rat GABAA receptor subunits α1, α4, β1, β2, β3 and γ2S were cloned as described. cDNAs of the rat subunits α2, α3 and α5 were gifts from P. Malherbe, that of α6 and γ1 were gifts of P. Seeburg and that of δ was a gift of C. Czajkowski. The mutants were constructed using the Q5 Site-Directed Mutagenesis Kit (New England Biolabs) following manufacturer’s instruction. We used the wild-type rat β3-pCI vector as template and the primers […] and […] resulting in a substitution of amino acid N41 (AAC) to R (AGG). We used the wild-type rat β1-pCI vector as template and the primers […] and […] resulting in a substitution of amino acid R41 (CGG) to N (AAC). The mutated subunits were confirmed by sequencing.
(§2) In vitro transcription of mRNA was based on the cDNA expression vectors encoding for rat GABAA receptor subunits α1–6, β1-3, γ1,2, δ and the two β mutants (β1R41N and β3N41R)[40]. After linearizing the cDNA vectors with appropriate restriction endonucleases, the cDNA was purified and concentrated with the DNA Clean and Contentrator ^TM Kit (Zymoresearch, Catalog No. D4005). Capped transcripts of the purified cDNA were produced using the mMESSAGE mMACHINE® T7 transcription kit (Ambion, TX, USA) and polyadenylated using the Ambion PolyA tailing kit (Ambion). After transcription and polyadenylation the RNA was purified with the MEGAclear ^TM Kit (Ambion, Catalog No. AM1908). The final RNA concentration was measured on NanoDrop® ND-1000 and finally diluted and stored in diethylpyrocarbonate-treated water at −80 °C. For the microinjection, the RNA of αβ receptor combinations was mixed at 1:1 ratio (which leads to αβ receptors that consist of predominantly 3 beta and 2 alpha subunits[27]), for αkβlγm (k = 1–3, l = 1, 3, m = 1, 2) receptors at 1:1:5 ratio, for αkβ3γ2 (k = 4–6) and αkβlδ (k = 1, 4 and 6, l = 1, 3) receptor combinations at 3:1:5 ratio.
(§3) Mature female Xenopus laevis (Nasco, WI) were anesthetized in a bath of ice-cold 0.17% Tricain (Ethyl-m-aminobenzoate, Sigma, MO) before decapitation in full accordance with all rules of the Austrian animal protection law (see http://www.ris.bka.gv.at/Dokumente/BgblAuth/BGBLA_2012_I_114/BGBLA_2012_I_114.pdf) and the Austrian animal experiment by-laws (see https://www.ris.bka.gv.at/Dokumente/BgblAuth/BGBLA_2012_II_522/BGBLA_2012_II_522.pdf) which implement the European Directive 2010/63/EU (see http://eur-lex.europa.eu/LexUriServ/LexUriServ.do?uri=OJ:L:2010:276:0033:0079:en:PDF) into the Austrian law (all information accessed on July 27, 2016). The frog’s ovaries were transferred to ND96 medium (96 mM NaCl, 2 mM KCl, 1 mM MgCl2, 5 mM HEPES; pH 7.5). Stage 5–6 oocytes with the follicle cell layer around them were roughly dissected with forceps into packages of 10–15 cells and washed in Ca^2+-free ND96 medium. Cells were then digested with collagenase (type IA, Sigma, NO, 1 mg/mL ND96) at 18 °C shaking at 30 rpm for 30–60 minutes and gently defolliculated with the aid of a glass pipette with appropriate tip diameter and a platinum loop. Defolliculated cells were stored at 18 °C for at least 6 hours in ND96 solution containing penicillin G (10000 IU/100 mL) and streptomycin (10 mg/100 mL) in order to preselect and exclude damaged cells from further treatment. Healthy defolliculated oocytes were injected with an aqueous solution of mRNA. A total of 4.5 ng of mRNA per oocyte was injected with a Nanoject II (Drummond). After injection of mRNA, oocytes were incubated at 18 °C (ND96 + antibiotic) for 2–3 days for αβ receptors and for 3–4 days for αβγ or αβδ receptors before recording. When cells were measured at later time points, oocytes were stored at +4 °C instead of 18 °C.
(§4) For electrophysiological recordings, oocytes were placed on a nylon-grid in a bath of Ca^2+-containing NDE solution medium [96 mM NaCl, 5 mM HEPES-NaOH (pH 7.5), 2 mM KCl, 1 mM MgCl2, 1.8 mM CaCl2].

The target in another assay is T2, α1β1γ1 GABAA receptors (Rattus norvegicus, UniProt P15431+P62813).
T2 construct: expressed in transfected cells; host or cells: Xenopus laevis oocytes, mRNA injected
The experiment in a line: Two electrode voltage clamp in Xenopus laevis oocytes, α1β1γ1.
Source text: as §1, §2, §3, §4

For a further assay, the target named is T3, α1β1δ GABAA receptors (Rattus norvegicus, UniProt P15431+P62813).
T3 construct: expressed in transfected cells; host or cells: Xenopus laevis oocytes, mRNA injected
Put plainly: Two electrode voltage clamp in Xenopus laevis oocytes, α1β1δ.
Source text: as §1, §2, §3, §4

The next assay deals with T4, α1β2 GABAA receptors (Rattus norvegicus, UniProt P62813+P63138).
T4 construct: expressed in transfected cells; host or cells: Xenopus laevis oocytes, mRNA injected
The experiment in a line: Two electrode voltage clamp in Xenopus laevis oocytes, α1β2.
Source text: as §1, §2, §3, §4
On the technique in general: In two-electrode clamp one electrode senses voltage and the other passes current.

The target in the next assay is T5, α1β3 GABAA receptors (Rattus norvegicus, UniProt P62813+P63079).
T5 construct: expressed in transfected cells; host or cells: Xenopus laevis oocytes, mRNA injected
Put plainly: Two electrode voltage clamp in Xenopus laevis oocytes, α1β3.
Source text: as §1, §2, §3, §4

The target of a further assay is T6, α1β1R41N GABAA receptors (Rattus norvegicus, UniProt P15431+P62813, R66N).
T6 construct: expressed in transfected cells; host or cells: Xenopus laevis oocytes, mRNA injected
The experiment in a line: Two electrode voltage clamp in Xenopus laevis oocytes, mutant α1β1R41N.
Source text: as §1, §2, §3, §4

The target of a further assay is T7, α1β3N41R GABAA receptors (Rattus norvegicus, UniProt P62813+P63079, N66R).
T7 construct: expressed in transfected cells; host or cells: Xenopus laevis oocytes, mRNA injected
The experiment in a line: Two electrode voltage clamp in Xenopus laevis oocytes, mutant α1β3N41R. Conditions: co-applied with GABA EC3-5, read-out: EC50 values for the mutated receptors.
Source text: as §1, §2, §3, §4

Like-named read-outs stand apart in the source and are kept apart here.

T4 sequence (P62813 28-455): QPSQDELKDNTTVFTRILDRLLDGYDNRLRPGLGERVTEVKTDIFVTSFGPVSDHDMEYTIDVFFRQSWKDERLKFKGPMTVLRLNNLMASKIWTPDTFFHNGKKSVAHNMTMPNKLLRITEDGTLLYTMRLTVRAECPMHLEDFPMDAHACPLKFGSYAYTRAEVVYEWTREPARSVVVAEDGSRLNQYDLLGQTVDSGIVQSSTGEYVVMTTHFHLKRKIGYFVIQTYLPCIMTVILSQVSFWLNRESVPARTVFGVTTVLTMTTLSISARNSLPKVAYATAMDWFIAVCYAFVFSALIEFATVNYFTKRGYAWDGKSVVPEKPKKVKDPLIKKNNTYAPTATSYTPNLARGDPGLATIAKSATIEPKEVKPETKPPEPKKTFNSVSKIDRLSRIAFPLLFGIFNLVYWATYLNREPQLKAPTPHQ
T4 sequence (P63138 25-474 limits assumed): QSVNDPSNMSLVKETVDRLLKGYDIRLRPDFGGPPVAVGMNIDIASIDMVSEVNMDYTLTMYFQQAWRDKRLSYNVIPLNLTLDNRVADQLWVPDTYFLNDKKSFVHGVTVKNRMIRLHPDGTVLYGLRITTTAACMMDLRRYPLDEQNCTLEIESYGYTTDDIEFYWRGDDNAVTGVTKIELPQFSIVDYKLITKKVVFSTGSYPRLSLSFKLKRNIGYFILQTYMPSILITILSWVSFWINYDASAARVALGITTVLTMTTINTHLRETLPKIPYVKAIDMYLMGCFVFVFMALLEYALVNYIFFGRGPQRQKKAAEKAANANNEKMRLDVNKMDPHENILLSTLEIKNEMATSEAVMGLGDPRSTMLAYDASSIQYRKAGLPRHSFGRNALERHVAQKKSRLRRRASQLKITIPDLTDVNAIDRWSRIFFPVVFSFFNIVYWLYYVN
T3 sequence (P62813 28-455): as the sequence (P62813 28-455) above
T3 sequence (P15431 26-474): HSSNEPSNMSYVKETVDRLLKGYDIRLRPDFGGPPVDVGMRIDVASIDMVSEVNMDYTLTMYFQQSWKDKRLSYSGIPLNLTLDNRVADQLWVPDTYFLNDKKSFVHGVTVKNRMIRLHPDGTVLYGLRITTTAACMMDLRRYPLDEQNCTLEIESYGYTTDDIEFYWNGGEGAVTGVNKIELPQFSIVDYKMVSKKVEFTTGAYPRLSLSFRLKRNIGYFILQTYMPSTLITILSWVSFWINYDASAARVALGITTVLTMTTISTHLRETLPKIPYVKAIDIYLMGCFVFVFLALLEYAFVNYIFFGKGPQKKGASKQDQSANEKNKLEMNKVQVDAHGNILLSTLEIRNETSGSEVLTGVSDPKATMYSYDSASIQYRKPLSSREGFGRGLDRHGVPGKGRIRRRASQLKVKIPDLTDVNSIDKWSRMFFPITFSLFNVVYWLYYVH
T3 sequence (P18506 17-449 partner limits assumed): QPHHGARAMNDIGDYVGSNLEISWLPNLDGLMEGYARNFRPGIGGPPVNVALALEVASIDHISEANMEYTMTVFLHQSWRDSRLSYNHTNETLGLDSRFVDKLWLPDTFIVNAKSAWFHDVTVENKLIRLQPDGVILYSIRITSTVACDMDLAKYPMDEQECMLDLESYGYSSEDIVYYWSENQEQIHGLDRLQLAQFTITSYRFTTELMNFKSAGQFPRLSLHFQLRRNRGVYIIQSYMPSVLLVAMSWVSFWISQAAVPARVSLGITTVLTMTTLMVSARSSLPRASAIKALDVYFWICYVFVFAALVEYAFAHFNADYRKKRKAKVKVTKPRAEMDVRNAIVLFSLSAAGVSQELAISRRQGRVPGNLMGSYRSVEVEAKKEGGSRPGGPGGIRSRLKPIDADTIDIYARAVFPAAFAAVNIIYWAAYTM
T6 sequence (P62813 28-455): as the sequence (P62813 28-455) above
T6 sequence (P15431 26-474 R66N): as the sequence (P15431 26-474) above, with R41N counted along it
T1 sequence (P62813 28-455): as the sequence (P62813 28-455) above
T1 sequence (P15431 26-474): as the sequence (P15431 26-474) above
T2 sequence (P62813 28-455): as the sequence (P62813 28-455) above
T2 sequence (P15431 26-474): as the sequence (P15431 26-474) above
T2 sequence (P23574 36-465 partner limits assumed): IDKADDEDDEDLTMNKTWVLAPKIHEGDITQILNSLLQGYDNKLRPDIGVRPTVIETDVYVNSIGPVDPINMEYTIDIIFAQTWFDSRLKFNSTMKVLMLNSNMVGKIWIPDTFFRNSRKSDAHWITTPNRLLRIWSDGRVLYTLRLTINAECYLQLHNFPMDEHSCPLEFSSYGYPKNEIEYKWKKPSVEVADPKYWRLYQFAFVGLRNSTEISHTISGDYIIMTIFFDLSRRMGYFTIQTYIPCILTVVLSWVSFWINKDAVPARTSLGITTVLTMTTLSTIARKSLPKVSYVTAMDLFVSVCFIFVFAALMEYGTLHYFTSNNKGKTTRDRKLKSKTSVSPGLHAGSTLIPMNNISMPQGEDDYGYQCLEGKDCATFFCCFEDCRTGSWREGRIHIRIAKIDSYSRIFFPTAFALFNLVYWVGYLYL
T5 sequence (P62813 28-455): as the sequence (P62813 28-455) above
T5 sequence (P63079 26-473): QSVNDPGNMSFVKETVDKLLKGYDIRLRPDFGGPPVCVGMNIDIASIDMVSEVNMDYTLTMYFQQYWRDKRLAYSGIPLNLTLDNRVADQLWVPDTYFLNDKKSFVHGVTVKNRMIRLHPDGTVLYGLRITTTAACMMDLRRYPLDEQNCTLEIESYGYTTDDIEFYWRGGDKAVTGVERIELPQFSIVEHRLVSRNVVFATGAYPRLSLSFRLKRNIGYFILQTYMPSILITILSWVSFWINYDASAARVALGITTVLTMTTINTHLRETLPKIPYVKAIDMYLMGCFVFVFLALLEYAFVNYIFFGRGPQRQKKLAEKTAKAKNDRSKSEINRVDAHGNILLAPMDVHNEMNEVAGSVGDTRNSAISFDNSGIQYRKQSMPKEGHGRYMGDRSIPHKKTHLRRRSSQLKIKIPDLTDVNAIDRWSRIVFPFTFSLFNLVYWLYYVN
T7 sequence (P62813 28-455): as the sequence (P62813 28-455) above
T7 sequence (P63079 26-473 N66R): as the sequence (P63079 26-473) above, with N41R counted along it

Consider `COc1ccc(-n2nc3c4cc(Cl)cc(C(C)(C)C)c4[nH]cc-3c2=O)cc1` [Compound 7, 6-(tert-Butyl)-8-chloro-2-(4-methoxyphenyl)-2,5-dihydro-3H-pyrazolo[4,3-c]quinolin-3-one], for which, at α1β1 GABAA receptors (α1β1, α1β1γ1 and α1β1δ receptors (Fig. 6), versus compound 1), the “shift of modulatory dose-response relative to parent compound 1” value is listed as “approximately twenty-fold right shift”. Further, the EC50 on α1β1γ1 GABAA receptors amounted to 21000 nM; on α1β1δ GABAA receptors (read-out: EC50), 2300 nM. For the same compound, the activity at 0.003 µM was found to be 105.1 ± 0.7% at α1β1γ1 GABAA receptors (read-out: efficacy, % of control current (GABA EC3-5 = 100%), α1β1γ1, 3 nM) and 100 ± 0.7% at α1β1δ GABAA receptors (read-out: efficacy, % of control current (GABA EC3-5 = 100%), α1β1δ, 3 nM). Further, the activity at 0.01 µM amounted to 106 ± 1.9% at α1β1γ1 GABAA receptors (read-out: efficacy, % of control current (GABA EC3-5 = 100%), α1β1γ1, 10 nM) and 106 ± 2.8% at α1β1δ GABAA receptors (read-out: efficacy, % of control current (GABA EC3-5 = 100%), α1β1δ, 10 nM). Moreover, the activity at 0.03 µM came out at 108 ± 1.4% at α1β1γ1 GABAA receptors (read-out: efficacy, % of control current (GABA EC3-5 = 100%), α1β1γ1, 30 nM) and 108 ± 5.2% on α1β1δ GABAA receptors (read-out: efficacy, % of control current (GABA EC3-5 = 100%), α1β1δ, 30 nM). The activity at 0.1 µM is 112 ± 0.9% at α1β1γ1 GABAA receptors (read-out: efficacy, % of control current (GABA EC3-5 = 100%), α1β1γ1, 100 nM) and 128 ± 3.4% on α1β1δ GABAA receptors (read-out: efficacy, % of control current (GABA EC3-5 = 100%), α1β1δ, 100 nM). Further, the activity at 1 µM at α1β1γ1 GABAA receptors (read-out: efficacy, % of control current (GABA EC3-5 = 100%), α1β1γ1, 1 µM) came to 121 ± 3.2%; at α1β1δ GABAA receptors (read-out: efficacy, % of control current (GABA EC3-5 = 100%), α1β1δ, 1 µM), 381 ± 48.7%. Further, the activity at 3 µM at α1β1γ1 GABAA receptors (read-out: efficacy, % of control current (GABA EC3-5 = 100%), α1β1γ1, 3 µM) turned out to be 159 ± 3.2%; at α1β1δ GABAA receptors (read-out: efficacy, % of control current (GABA EC3-5 = 100%), α1β1δ, 3 µM), 636 ± 116%. Besides, the activity at 10 µM at α1β1γ1 GABAA receptors (read-out: efficacy, % of control current (GABA EC3-5 = 100%), α1β1γ1, 10 µM) is 175 ± 13.6%; on α1β1δ GABAA receptors (read-out: efficacy, % of control current (GABA EC3-5 = 100%), α1β1δ, 10 µM) it was 885 ± 293%. Further, the “Hill slope (nH)” value at α1β1γ1 GABAA receptors (α1β1γ1) turned out to be 0.6±0.2; on α1β1δ GABAA receptors (α1β1δ), 1.1±0.8. Moreover, at α1β1δ GABAA receptors (read-out: efficacy, % of control current (GABA EC3-5 = 100%), α1β1δ, 300 nM), the activity at 0.3 µM is 163 ± 6.2%.
With `COc1ccc(-n2nc3c4cc(OC)ccc4[nH]cc-3c2=O)cc1` [Compound 4, 8-Methoxy-2-(4-methoxyphenyl)-2,5-dihydro-3H-pyrazolo[4,3-c]quinolin-3-one], the activity at 0.001 µM at α1β1 GABAA receptors (read-out: efficacy, % of control current (GABA EC3-5 = 100%), α1β1, 1 nM) is 100%. Also, the activity at 0.003 µM at α1β1 GABAA receptors (read-out: efficacy, % of control current (GABA EC3-5 = 100%), α1β1, 3 nM) is 100%; on α1β2 GABAA receptors (read-out: efficacy, % of control current (GABA EC3-5 = 100%), α1β2, 3 nM), 100%. Also, the activity at 0.03 µM at α1β1 GABAA receptors (read-out: efficacy, % of control current (GABA EC3-5 = 100%), α1β1, 30 nM) came to 127 ± 1%; at α1β2 GABAA receptors (read-out: efficacy, % of control current (GABA EC3-5 = 100%), α1β2, 30 nM), 100%. Also, the activity at 0.3 µM at α1β1 GABAA receptors (read-out: efficacy, % of control current (GABA EC3-5 = 100%), α1β1, 300 nM) worked out at 397 ± 54.9%; at α1β2 GABAA receptors (read-out: efficacy, % of control current (GABA EC3-5 = 100%), α1β2, 300 nM), 166 ± 7.9%; at α1β3 GABAA receptors (read-out: efficacy, % of control current (GABA EC3-5 = 100%), α1β3, 300 nM), 149 ± 15.8%. In addition, the activity at 30 µM on α1β1 GABAA receptors (read-out: efficacy, % of control current (GABA EC3-5 = 100%), α1β1, 30 µM) amounted to 218 ± 11%. Besides, the “Hill slope (nH)” value on α1β1 GABAA receptors (α1β1) is listed as 1.8±0.4; on α1β2 GABAA receptors (α1β2), 1.3±0.5; on α1β3 GABAA receptors (α1β3), 1.9±0.5. In addition, the EC50 was about 200 nM at α1β1 GABAA receptors (α1β1 (α1+/β1− interface)); 210 nM on α1β1 GABAA receptors (α1β1, co-applied with GABA EC3-5); 2620 nM on α1β2 GABAA receptors; 3130 nM on α1β3 GABAA receptors (α1β3, co-applied with GABA EC3-5, read-out: EC50); 3090 nM at α1β3 GABAA receptors (α1β3, log of EC50, sign as printed, read-out: LogEC50 (converted)); 1200 nM on α1β1R41N GABAA receptors (co-applied with GABA EC3-5). In addition, at α1β3N41R GABAA receptors, the EC50 amounted to 1200 nM. In addition, the activity at 3 µM on α1β2 GABAA receptors (read-out: efficacy, % of control current (GABA EC3-5 = 100%), α1β2, 3 µM) came to 689 ± 82.9%; on α1β3 GABAA receptors (read-out: efficacy, % of control current (GABA EC3-5 = 100%), α1β3, 3 µM), 654 ± 109%. For the same compound, the activity at 1 µM at α1β3 GABAA receptors (read-out: efficacy, % of control current (GABA EC3-5 = 100%), α1β3, 1 µM) came out at 242 ± 16%. Further, on α1β1R41N GABAA receptors (100nM, read-out: % of control current at EC3-5), the current as % of control at 0.1 µM came to 80 ± 10%. Further, the current as % of control at 0.3 µM at α1β1R41N GABAA receptors (300nM, read-out: % of control current at EC3-5) is 85 ± 12%. For the same compound, the current as % of control at 1 µM on α1β1R41N GABAA receptors (1μM, read-out: % of control current at EC3-5) is 110 ± 20%. Further, the current as % of control at 3 µM at α1β1R41N GABAA receptors (3µM, read-out: % of control current at EC3-5) came out at 150 ± 25%. For the same compound, at α1β1R41N GABAA receptors (10μM, read-out: % of control current at EC3-5), the current as % of control at 10 µM was 180 ± 45%. Also, the current as % of control at 30 µM on α1β1R41N GABAA receptors (30μM, read-out: % of control current at EC3-5) came out at 140 ± 15%.
